US20220332699A1 (SAGE THERAPEUTICS, INC., priority 2019, published 2022)
Where two headings read alike, the source gives them in different places.

Biological target: CYP46A1 (Homo sapiens, UniProt Q9Y6A2)
Assay: CYP46A1 Enzyme Assay 2 (testosterone substrate, HPLC-MS)
Assay type: biochemical
Procedure: Briefly, in a 384-well plate format, 10 μL per well of an enzyme-substrate mixture of CYP46A1 (5 μM final concentration) and Testosterone ([…] final concentration) were dispensed to wells containing test compound. For CYP46A1 titration, 5 μL per well of serially diluted CYP46A1 (concentrations including 10 μM, 5 μM, and 2.5 μM) and Testosterone (concentration of […]) were dispensed. For Testosterone titration, 5 μL per well of serially diluted Testosterone (concentrations including 10 μM, 5 μM, and 2.5 μM) and CYP46A1 (concentration of 5 μM) were dispensed. The plates were centrifuged at 1000 rpm for 30 seconds, and then sealed and incubated at 37° C. for 30 minutes. The plate was removed from the incubator, and then 10 μL per well of NADPH-generating system were dispensed to initiate the reaction. The plates were incubated at 37° C. for 15 minutes, added with 80 μL per well of 100% methanol consisting 1 ng/ml diclofenac as internal standard, and then transferred for HPLC-MS.

[1] = read-out: IC50 (CYP46A1 inhibitory activity)

CYP46A1, sequence (Q9Y6A2 whole entry): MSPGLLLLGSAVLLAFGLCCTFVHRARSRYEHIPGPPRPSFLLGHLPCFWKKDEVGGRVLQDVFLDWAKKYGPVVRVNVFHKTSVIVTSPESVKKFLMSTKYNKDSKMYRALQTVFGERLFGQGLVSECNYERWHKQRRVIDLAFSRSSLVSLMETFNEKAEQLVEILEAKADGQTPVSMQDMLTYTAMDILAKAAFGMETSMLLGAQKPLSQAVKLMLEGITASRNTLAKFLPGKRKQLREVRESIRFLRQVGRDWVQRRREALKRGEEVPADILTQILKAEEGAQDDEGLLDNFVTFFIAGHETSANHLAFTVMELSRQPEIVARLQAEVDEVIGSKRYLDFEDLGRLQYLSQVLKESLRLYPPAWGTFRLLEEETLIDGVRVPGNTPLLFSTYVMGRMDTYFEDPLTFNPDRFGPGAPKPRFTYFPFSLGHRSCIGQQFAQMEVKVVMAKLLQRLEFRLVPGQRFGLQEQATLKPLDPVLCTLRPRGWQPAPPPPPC

Q: With `N#CC1(Cc2cc(C(F)(F)F)ccc2F)CCN(C(=O)c2cccnc2-c2ccncn2)CC1` [Compound A273, 4-(2-fluoro-5-(trifluoromethyl)benzyl)-1-(2-(pyrimidin-4-yl)nicotinoyl)piperidine-4-carbonitrile] as the compound, how does the IC50 [1] read?
A: The IC50 was < 100 nM.

Q: How did the IC50 [1] turn out when `N#CC1(CC2CC2)CCN(C(=O)c2cccnc2-c2ccncn2)CC1` [Compound A58, 4-(cyclopropylmethyl)-1-(2-(pyrimidin-4-yl)nicotinoyl)piperidine-4-carbonitrile] was run?
A: The IC50 was 100 to 1000 nM.

Q: With `N#CC1(CC2CC(F)(F)C2)CCN(C(=O)c2cccnc2-c2ccncn2)CC1` [Compound A54, 4-((3,3-difluorocyclobutyl)methyl)-1-(2-(pyrimidin-4-yl)nicotinoyl)piperidine-4-carbonitrile] as the compound, how does the IC50 [1] read?
A: The IC50 was 100 to 1000 nM.

Q: `N#CC1(Cc2ccc(C3CC3)cc2)CCN(C(=O)c2cccnc2-c2ccncn2)CC1` [Compound A212, 4-(4-cyclopropylbenzyl)-1-(2-(pyrimidin-4-yl)nicotinoyl)piperidine-4-carbonitrile] was tested. Which IC50 [1] did it give?
A: The IC50 was < 100 nM.

Q: For `N#C[C@@]1(Cc2ccc(F)cc2)CCN(C(=O)c2cccnc2-c2ccncn2)C1` [Compound A236, (S)-3-(4-fluorobenzyl)-1-(2-(pyrimidin-4-yl)nicotinoyl)pyrrolidine-3-carbonitrile], which IC50 [1] is on record?
A: Its IC50 is > 1000 nM.

Q: For `CCc1ccc(CC2(C#N)CCN(C(=O)c3cccnc3-c3ccncn3)CC2)cc1` [Compound A208, 4-(4-ethylbenzyl)-1-(2-(pyrimidin-4-yl)nicotinoyl)piperidine-4-carbonitrile], which IC50 [1] is on record?
A: The IC50 was < 100 nM.

Q: For `N#CC1(Cc2ccc(F)cc2F)CCN(C(=O)c2cccnc2-c2ccncc2)CC1` [Compound A284, 1-([2,4′-bipyridine]-3-carbonyl)-4-(2,4-difluorobenzyl)piperidine-4-carbonitrile], which IC50 [1] is on record?
A: Its IC50 is < 100 nM.

Q: `N#CC1(Cc2ccc(F)cc2)CCN(C(=O)c2cccnc2-c2ccnnc2)CC1` [Compound A200, 4-(4-fluorobenzyl)-1-(2-(pyridazin-4-yl)nicotinoyl)piperidine-4-carbonitrile] was tested. Which IC50 [1] did it give?
A: Its IC50 is > 1000 nM.

Q: For `CS(=O)(=O)c1ccc(CC2(C#N)CCN(C(=O)c3cccnc3-c3ccncn3)CC2)cc1` [Compound A204, 4-(4-(methylsulfonyl)benzyl)-1-(2-(pyrimidin-4-yl)nicotinoyl)piperidine-4-carbonitrile], which IC50 [1] is on record?
A: Its IC50 is 100 to 1000 nM.

Q: For `N#CC1(Cc2ccc(C3CC3)cn2)CCN(C(=O)c2cccnc2-c2ccncn2)CC1` [Compound A226, 4-((5-cyclopropylpyridin-2-yl)methyl)-1-(2-(pyrimidin-4-yl)nicotinoyl)piperidine-4-carbonitrile], which IC50 [1] is on record?
A: Its IC50 is 100 to 1000 nM.

Q: `N#CC1(Cc2ccc(F)c(C(F)(F)F)c2)CCN(C(=O)c2cccnc2-c2ccncn2)CC1` [Compound A267, 4-(4-fluoro-3-(trifluoromethyl)benzyl)-1-(2-(pyrimidin-4-yl)nicotinoyl)piperidine-4-carbonitrile] was tested. Which IC50 [1] did it give?
A: The IC50 was < 100 nM.

Q: For `N#CC1(Cc2ccc(F)cc2)CCN(C(=O)c2cccnc2-c2cccnc2)CC1` [Compound A18, 1-([2,3′-bipyridine]-3-carbonyl)-4-(4-fluorobenzyl)piperidine-4-carbonitrile], which IC50 [1] is on record?
A: The IC50 was > 1000 nM.

Q: `Cc1ccc(C(=O)N2CCC(C#N)(Cc3ccc(F)cc3)CC2)c(-c2ccncn2)n1` [Compound A249, 4-(4-fluorobenzyl)-1-(6-methyl-2-(pyrimidin-4-yl)nicotinoyl)piperidine-4-carbonitrile] was tested. Which IC50 [1] did it give?
A: Its IC50 is > 1000 nM.

Q: For `N#CC1(c2ccccc2)CCN(C(=O)c2cccnc2-c2ccncn2)CC1` [Compound A256, 4-phenyl-1-(2-(pyrimidin-4-yl)nicotinoyl)piperidine-4-carbonitrile], which IC50 is on record?
A: Its IC50 is > 1000 nM.

Q: With `N#CC1(Cc2ccc(F)c(F)c2)CCN(C(=O)c2cccnc2-c2ccncn2)CC1` [Compound A206, 4-(3,4-difluorobenzyl)-1-(2-(pyrimidin-4-yl)nicotinoyl)piperidine-4-carbonitrile] as the compound, how does the IC50 [1] read?
A: The IC50 was < 100 nM.

Q: How did the IC50 [1] turn out when `C[C@H](c1ccc(F)cc1F)C1(C#N)CCN(C(=O)c2cccnc2-c2ccncc2)CC1` [Compound A237, (S)-1-([2,4′-bipyridine]-3-carbonyl)-4-(1-(2,4-difluorophenyl)ethyl)piperidine-4-carbonitrile] was run?
A: The IC50 was < 100 nM.

Q: With `N#CC1(Cc2ccc(C(F)(F)F)nc2)CCN(C(=O)c2cccnc2-c2ccncn2)CC1` [Compound A222, 1-(2-(pyrimidin-4-yl)nicotinoyl)-4-((6-(trifluoromethyl)pyridin-3-yl)methyl)piperidine-4-carbonitrile] as the compound, how does the IC50 [1] read?
A: The IC50 was 100 to 1000 nM.

Q: How did the IC50 [1] turn out when `N#CC1(Cc2cccc(C(F)(F)F)c2)CCN(C(=O)c2cccnc2-c2ccncn2)CC1` [Compound A264, 1-(2-(pyrimidin-4-yl)nicotinoyl)-4-(3-(trifluoromethyl)benzyl)piperidine-4-carbonitrile] was run?
A: Its IC50 is < 100 nM.

Q: For `N#CC1(Cc2cc(F)cc(F)c2)CCN(C(=O)c2cccnc2-c2ccncc2)CC1` [Compound A70, 1-([2,4′-bipyridine]-3-carbonyl)-4-(3,5-difluorobenzyl)piperidine-4-carbonitrile], which IC50 [1] is on record?
A: The IC50 was < 100 nM.

Q: How did the IC50 [1] turn out when `N#CC1(CCCCc2ccccc2)CCN(C(=O)c2cccnc2-c2ccncc2)CC1` [Compound A67, 1-([2,4′ bipyridine]-3-carbonyl)-4-(4-phenylbutyl)piperidine-4-carbonitrile] was run?
A: Its IC50 is < 100 nM.

Q: `C[C@H](c1ccc(F)cc1)C1(C#N)CCN(C(=O)c2cccnc2-c2ccncn2)CC1` [Compound A45, (R)-4-(1-(4-fluorophenyl)ethyl)-1-(2-(pyrimidin-4-yl)nicotinoyl)piperidine-4-carbonitrile] was tested. Which IC50 [1] did it give?
A: The IC50 was < 100 nM.

Q: How did the IC50 [1] turn out when `CC(c1cc(F)cc(F)c1)C1(C#N)CCN(C(=O)c2cccnc2-c2ccncc2)CC1` (stereo in doubt) [Compound A260, (R)-1-([2,4′-bipyridine]-3-carbonyl)-4-(1-(3,5-difluorophenyl)ethyl)piperidine-4-carbonitrile] was run?
A: Its IC50 is < 100 nM.

Q: For `N#CC1(Cc2ccccc2C2CC2)CCN(C(=O)c2cccnc2-c2ccncn2)CC1` [Compound A214, 4-(2-cyclopropylbenzyl)-1-(2-(pyrimidin-4-yl)nicotinoyl)piperidine-4-carbonitrile], which IC50 [1] is on record?
A: The IC50 was < 100 nM.

Q: `N#CC1(Cc2ccc(F)cc2)CCN(C(=O)c2c(F)cccc2-c2ccncn2)CC1` [Compound A221, 1-(2-fluoro-6-(pyrimidin-4-yl)benzoyl)-4-(4-fluorobenzyl)piperidine-4-carbonitrile] was tested. Which IC50 [1] did it give?
A: The IC50 was < 100 nM.

Q: `N#CC1(Cc2ccc(F)cc2)CCN(C(=O)c2cccnc2-n2ccnc2)CC1` [Compound A16, 1-(2-(1H-imidazol-1-yl)nicotinoyl)-4-(4-fluorobenzyl)piperidine-4-carbonitrile] was tested. Which IC50 [1] did it give?
A: The IC50 was > 1000 nM.

Q: Which IC50 [1] does the source give for `N#CC1(Cc2ccccc2)CCN(C(=O)c2cccnc2-c2ccncn2)CC1` [Compound A31, 4-benzyl-1-(2-(pyrimidin-4-yl)nicotinoyl)piperidine-4-carbonitrile] here?
A: Its IC50 is < 100 nM.

Q: How did the IC50 [1] turn out when `N#CC1(Cc2ccncc2)CCN(C(=O)c2cccnc2-c2ccncc2)CC1` [Compound A65, 1-([2,4′-Bipyridine]-3-carbonyl)-4-(pyridin-4-ylmethyl)piperidine-4-carbonitrile] was run?
A: The IC50 was 100 to 1000 nM.

Q: For `N#CC1(Cc2ccc3ccccc3c2)CCN(C(=O)c2cccnc2-c2ccncn2)CC1` [Compound A224, 4-(naphthalen-2-ylmethyl)-1-(2-(pyrimidin-4-yl)nicotinoyl)piperidine-4-carbonitrile], which IC50 [1] is on record?
A: Its IC50 is < 100 nM.

Q: With `N#CC1(Cc2cccnc2)CCN(C(=O)c2cccnc2-c2ccncc2)CC1` [Compound A72, 1-{[2,4′-bipyridine]-3-carbonyl}-4-[(pyridin-3-yl)methyl]piperidine-4-carbonitrile] as the compound, how does the IC50 [1] read?
A: Its IC50 is 100 to 1000 nM.
